Measured values published in US20180325151A1, “METHOD OF PRODUCING INSTANT GINSENG CHICKEN SOUP PRODUCT” (HARIM CORPORATION, priority 2017, published 2018).

Columns and labels:
total number of bacteria = assay: Microorganism growth inhibition: total number of bacteria on plate count agar; format: cell-based; settings: boiled soup chicken dipped 30 seconds in solution, stored at 25° C.
Procedure: (§1) A chicken in instant ginseng chicken soup (product of Harim) was boiled, washed twice with cold water, and then dehydrated for 1 minute. 10 g of boiled instant ginseng chicken soup was dipped in 100 ml of solution for 30 seconds, dehydrated for 30 seconds on a strainer, held in a petri dish, and then stored at 25° C. For counting the total number of bacteria, the number of colonies resulting from culturing for 48 hours at 37° C. using a plate count agar was counted and indicated with colony forming unit (CFU)/ml. For counting the number of colon bacteria, the experiment was conducted in the same way for counting the total number of bacteria using a Chromocult (merck) medium. In this case, distilled water as a control group and (F)rhodinic acid were used.

colon bacteria = assay: Microorganism growth inhibition: number of colon bacteria on Chromocult medium; format: cell-based; settings: time 24 (hours); stored at 25° C.; ND = Not observed
Procedure: as §1

CC(C)=CCCC(C)CC(=O)O (centres unmarked) [F (rhodinic acid), rhodinic acid]
Total number of bacteria (total number of bacteria; time 0): 6.7 × 10^2 CFU/ml | Total number of bacteria (total number of bacteria; time 18): 10 × 10^5 CFU/ml | Total number of bacteria (total number of bacteria; time 24 (hours)): 8.9 × 10^6 CFU/ml | Total number of bacteria (total number of bacteria; time 24 (hours), listed as (F)rhodinic acid): up to 10^6 CFU/ml | Number of colon bacteria (colon bacteria): no colon bacteria were detected
